In patent publication US11180459B2, “Bacterial efflux pump inhibitors” (RUTGERS, THE STATE UNIVERSITY OF NEW JERSEY, priority 2017, dated 2021):
Structures can show the parent of a compound that is named as a salt.

system: Pseudomonas aeruginosa ATCC 27853; assay: Standard EPI assay: levofloxacin MIC with EPI; type: cell-based; details: levofloxacin as antibiotic; P. aeruginosa ATCC 27853; EPI at 12.5 (μg)
Experimental: (§1) MIC assays were conducted in accordance with Clinical and Laboratory Standards Institute (CLSI) guidelines for broth microdilution.
(§2) The EPI assay for the purposes of these studies represents a MIC assay in which the MIC of the antibiotic against the bacteria is tested in the presence of an experimental efflux pump inhibitor (EPI). The highest concentration of the EPI present in the assay typically is ½ of the intrinsic MIC of the compound. If the intrinsic MIC of the EPI is greater than 100 μg/mL, the EPI assay was tested with 50 μg/mL. Using serial dilutions of the EPI, its enhancement of antibiotic activity was then evaluated. The relative EPI activity was decided by comparing the MIC of the antibiotic in the presence of the EPI compound with the intrinsic MIC of the antibiotic alone. For the evaluation of the efficacy of an EPI against bacteria that were pre-exposed to an antibiotic, the inoculum of bacteria that used was developed from a bacterial culture isolated as a single colony following exposure at ½ the MIIC of the antibiotic (so as to induce efflux pump expression), was to be used in combination with the EPI.
(§3) In our standard EPI assay, the MIC of the test antibiotic is determined in the absence and presence of sub-inhibitory concentrations of the EPI. Initially, the sub-inhibitory concentration used was ½×MIC of the EPI. […] The MIC of levofloxacin against P. aeruginosa ATCC 27853 in the absence of EPI is 1 μg/mL. […] Similar methodology was employed to examine the synergy with Escherichia coli ATCC 25922 in the presence of varied concentrations of these EPIs using clarithromycin as the antibiotic.

Structure (SMILES) | Enhanced Activity in P. aeruginosa (fold enhancement of antibiotic activity / EPI concentration) [×/12.5]
CC(C)(N)C1CN[C@H](CNC(=O)c2nc3ccc(-c4ccc(F)cc4)cc3[nH]2)C1 (stereo partly drawn) [Example 11, N-(((2S)-4-(2-aminopropan-2-yl)pyrrolidin-2-yl)methyl)-6-(4-fluorophenyl)-1H-benzo[d]imidazole-2-carboxamide Dihydrochloride] | 2

same assay, conditions: levofloxacin as antibiotic; P. aeruginosa ATCC 27853; EPI at 25 (μg)

Structure (SMILES) | Enhanced Activity in P. aeruginosa (fold enhancement of antibiotic activity / EPI concentration) [×/25]
Cl.Cl.NC[C@H](N)CNC(=O)c1nc2ccc(-c3ccc(F)cc3)cc2[nH]1 [Example 13, (S)-3-(5-(4-fluorophenyl)-1H-benzo[d]imidazole-2-carboxamido) propane-1,2-diaminium Dihydrochloride] | 4

system: Escherichia coli ATCC 25922; assay: Standard EPI assay: clarithromycin MIC with EPI; type: cell-based; details: clarithromycin as antibiotic; E. coli ATCC 25922; EPI at 6.25 (μg)
Experimental: as §1, §2, §3

Structure (SMILES) | Enhanced Activity in E. coli (fold enhancement of antibiotic activity / EPI concentration)
NCCC[C@H](N)CNC(=O)c1nc2cc(-c3ccc(F)cc3)c(-c3ccc(F)cc3)cc2[nH]1 [Example 1, (S)—N-(2,5-diaminopentyl)-5,6-bis(4-fluorophenyl)-1H-benzo[d]imidazole-2-carboxamide Dihydrochloride] | 512×/6.25
Cl.Cl.Cn1c(C(=O)NC[C@@H](N)CCCN)nc2cc(-c3ccc(F)cc3)c(-c3ccc(F)cc3)cc21 [Example 30, (S)—N-(2,5-diaminopentyl)-5,6-bis(4-fluorophenyl)-1-methyl-1H-benzo[d]imidazole-2-carboxamidehydrogen Chloride Salt] | 512×/6.25 μg
Cl.Cl.NCCC[C@H](N)CNC(=O)c1nc2cc(-c3ccc(F)cc3)c(-c3ccc(F)cc3)cc2n1Cc1ccccc1 [Example 31, (S)-1-benzyl-N-(2,5-diaminopentyl)-5,6-bis(4-fluorophenyl)-1H-benzo[d]imidazole-2-carboxamide Hydrogen Chloride Salt] | 8×/6.25 μg
CC(C)C(N)CC[C@H](N)CNC(=O)c1nc2cc(-c3ccc(F)cc3)ccc2[nH]1 (stereo partly drawn) [Example 16, N-((2S)-2,5-diamino-6-methylheptyl)-5-(4-fluorophenyl)-1H-benzo[d]imidazole-2-carboxamide Dihydrochloride] | 4×/6.25
NCCC[C@@H](N)CNC(=O)c1nc2cc(-c3ccc(F)cc3)ccc2[nH]1 [Example 18, (R)—N-(2,5-diaminopentyl)-5-(4-fluorophenyl)-1H-benzo[d]imidazole-2-carboxamide Dihydrochloride] | 2×/6.25

same assay, conditions: clarithromycin as antibiotic; E. coli ATCC 25922; EPI at 50 (μg)

Structure (SMILES) | Enhanced Activity in E. coli (fold enhancement of antibiotic activity / EPI concentration)
Cn1c(C(=O)NC[C@@H](N)CCCN)nc2cc(-c3ccc(F)cc3)ccc21 [Example 5, (S)—N-(2,5-diaminopentyl)-5-(4-fluorophenyl)-1-methyl-1H-benzo[d]imidazole-2-carboxamide Dihydrochloride] | 64×/50
NCCC[C@H](N)CNC(=O)c1nc2cc(Br)ccc2[nH]1 [Example 23, (S)-5-bromo-N-(2,5-diaminopentyl)-1H-benzo[d]imidazole-2-carboxamide Hydrogen Chloride Salt] | 2×/50 μg
NCCC[C@H](N)CNC(=O)Cc1nc2ccc(-c3ccc(F)cc3)cc2[nH]1 [Example 10, (S)—N-(2,5-diaminopentyl)-2-(6-(4-fluorophenyl)-1H-benzo[d]imidazol-2-yl)acetamide Dihydrochloride] | 1×/50
Cl.Cl.NCCC[C@H](N)CNC(=O)c1nc2ccc(-c3ccc(N)cc3)cc2[nH]1 [Example 25, (S)-6-(4-aminophenyl)-N-(2,5-diaminopentyl)-1H-benzo[d]imidazole-2-carboxamide Hydrogen Chloride Salt] | 2×/50 μg
NCCC[C@H](N)CNC(=O)c1nc2cc(-c3ccc(F)cc3)ccc2[nH]1 [Example 17, (S)—N-(2,5-diaminopentyl)-5-(4-fluorophenyl)-1H-benzo[d]imidazole-2-carboxamide Dihydrochloride] | 256×/50
